Data reported in patent US8455440B2, “Combination anticoagulant therapy with a compound that acts as a factor Xa inhibitor” (Millennium Pharmaceuticals, Inc., priority 2007, dated 2013).

Experiments:
factor Xa = biological target: T1, factor Xa (Bos taurus, UniProt P00743); assay: Anti-factor Xa unit assay; type: biochemical, human; conditions: total knee replacement patients, 15 mg or 40 mg oral twice a day
T1 construct: purchased Diapharma COATEST LMW Heparin
Experimental: The anti-factor Xa (anti-fXa) assay was adapted from a commercial kit (Diapharma COATEST LMW Heparin) and modified to a 96-well format. A low molecular weight heparin, dalteparin, included in the kit was used to construct a standard curve according to the manufacture's instruction using pooled platelets poor plasma. All samples and standards were assayed in duplicate. The limit of quantitation was 0.05 U/mL and results below 0.05 U/mL were reported as below the limit of quantitation. The upper limit of measurement for the plate assay was 1.0 U/mL and samples with anti-factor Xa units higher than 1.0 U/mL were re-assayed after dilution. The coefficient of variation (CV) for both standards and clinical samples were 10%.

human whole blood = assay: Real time perfusion chamber: whole blood perfused over collagen and tissue factor coated surface; type: cell-based; conditions: shear rate 300 s^−1, five donors
Experimental: After the perfusion, the thrombotic activity was quantified by measurement of labeled fibrin produced as a result of fibrinogen cleavage during the activation of platelets and the blood coagulation system. For this series of experiments in five healthy human volunteers, blood was obtained by venipuncture and treated with 2.4 μM eptifibatide. The dose of eptifibatide corresponds to the plasma concentration attained by therapeutic concentrations of the GPIIb/IIIa inhibitor.

[1] = test system: ferric chloride induced thrombosis in rat carotid artery; assay: Ferric chloride induced thrombosis in rat carotid artery; type: in vivo; conditions: for % Did not occlude (inhibition of rat thrombosis) / Number of animals without occlusion: intravenous infusion; for Number of animals without occlusion: 10 animals; for time to occlusion: animals that had vessel occlusion
cytokine release = assay: Ex vivo assay of human cytokine release in collagen activated whole blood; type: cell-based; conditions: Compound A single treatment (50 to 500 nM), blood of healthy untreated donors, collagen 4 μg/mL
Experimental: (§1) An ex vivo assay system of human cytokine release was used to test whether inhibition of factor Xa should augment the effect of reduction of inflammation elicited by standard anti-inflammatory drugs, such as aspirin.
(§2) Following addition of Compound A (50 to 500 nM) to the blood samples, control and treated samples were activated by addition of collagen (Chronolog, 4 μg/mL) and gently rotated at 37° C. for 45 min. At the end of the activation period, blood samples were centrifuged at 13,000 rpm (15,000 g) for 5 min in an Eppendorf 5415G centrifuge. Plasma was removed, treated with protease inhibitor cocktail (Roche) and stored frozen at −80° C. Cytokines released from the blood cells were quantitated in a Multiplexed Biomarker Immunoassay for Luminex Instrumentation (Millipore USA). […] For example, in the plasma samples from six donors, the mean amount of interleukin 4 was 28.4 pg/mL in the untreated control and 26.8 to 29.4 pg/mL in the Compound A treated samples. […] Thus in this ex vivo system Compound A was capable of providing additional beneficial effect over a widely used anti-inflammatory agent.

Interleukin 6 = assay: Ex vivo cytokine release in human whole blood: interleukin 6; type: cell-based; conditions: for fold change of Interleukin 6 release: combination with Aspirin (0 nM = 1)
Experimental: as §1, §2

Interleukin 8 = assay: Ex vivo cytokine release in human whole blood: interleukin 8; type: cell-based
thrombin generation = assay: Thrombin generation assay in platelet rich plasma (PRP); type: biochemical, human
Experimental: PRP and PPP were prepared by spinning the anticoagulated blood at ˜100×g or 1000×g for 20 minutes, respectively, at room temperature. Platelet counts in PRP were adjusted with homologous PPP to about 200,000 platelets/μL. For thrombin generation in 100 μL reaction mixture, 75 μL PRP was first mixed with CaCl2, convulxin, and Z-Gly-Gly-Arg-aminomethylcoumarin (Z-GGR-AMC, a thrombin fluorogenic substrate) for 3 minutes at 37° C., followed by adding tissue factor (Innovin, Dade Behring) to initiate the generation of thrombin. A typical reaction mixture contained 15 mM Ca^2+, 0.1 μg/mL convulxin, 100 μM Z-GGR-AMC, and 0.1 nM TF (tissue factor) (Innovin). Thrombin formation was monitored continuously at 37° C. by a fluorometric plate reader (Molecular Devices) measuring the relative fluorescence units (RFU). Inhibitors were pre-incubated with plasma for 20 minutes at room temperature before adding CaCl2 and convulxin.
Non-ASA represents result from donors free of aspirin. ASA represents results from donors taken aspirin for at least three days. % Inhibition was calculated by normalization of mean RFU (n=5) to Non-ASA at 0 nM Compound A.

[2] = test system: venous thromboembolism (VTE); assay: Prospective randomized trial for prevention of venous thromboembolic events after total knee replacement; conditions: for VTE %: 10-14 days
Source text: Safety endpoints included the incidence of major and clinically significant nonmajor bleeds through the day after venography. All efficacy and bleeding endpoints were adjudicated by a blinded, independent central adjudication committee.

[3] = Compound A added to blood samples from donors under aspirin therapy
[4] = addition of Compound A to whole blood of aspirin treated donors prior to collagen activation

T1 sequence (P00743 234-492 limits assumed): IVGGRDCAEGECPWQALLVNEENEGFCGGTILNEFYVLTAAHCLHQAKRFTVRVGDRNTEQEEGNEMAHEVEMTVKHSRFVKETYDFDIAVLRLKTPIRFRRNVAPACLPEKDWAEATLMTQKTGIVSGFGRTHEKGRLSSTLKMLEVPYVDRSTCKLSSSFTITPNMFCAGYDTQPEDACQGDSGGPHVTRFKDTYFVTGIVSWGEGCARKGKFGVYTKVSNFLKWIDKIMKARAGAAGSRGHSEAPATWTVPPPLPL
T1 sequence (P00743 41-180 partner limits assumed): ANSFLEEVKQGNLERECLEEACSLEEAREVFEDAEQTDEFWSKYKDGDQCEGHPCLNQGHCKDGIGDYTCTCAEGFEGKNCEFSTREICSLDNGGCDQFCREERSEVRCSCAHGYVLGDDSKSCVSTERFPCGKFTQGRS

COc1ccc(NC(=O)c2ccc(C(=N)N(C)C)cc2)c(C(=O)Nc2ccc(Cl)cn2)c1 [Compound A, [2-({4-[(dimethylamino)iminomethyl]phenyl}carbonylamino)-5-methoxyphenyl]-N-(5-chloro(2-pyridyl))carboxamide]
effect on anti-factor Xa levels (factor Xa): dose- and concentration-dependent effect | Mean Fluorescence (human whole blood; 10 nM Compound A + 2.4 μM eptifibatide): 107.7 | Mean Fluorescence (human whole blood; 25 nM Compound A + 2.4 μM eptifibatide): 85.0 | Mean Fluorescence (human whole blood; 50 nM Compound A + 2.4 μM eptifibatide): 64.5 | Mean Fluorescence (human whole blood; 75 nM Compound A + 2.4 μM eptifibatide): 34.7 | Mean Fluorescence (human whole blood; 100 nM Compound A + 2.4 μM eptifibatide): 33.0 | % Did not occlude (inhibition of rat thrombosis) ([1]; 0.03 μM Compound A): 30% | Number of animals without occlusion ([1]; 0.03 μM Compound A): 3 | time to occlusion ([1]; 0.03 μM Compound A): 27.07 | % Did not occlude (inhibition of rat thrombosis) ([1]; 0.1 μM Compound A): 60% | Number of animals without occlusion ([1]; 0.1 μM Compound A): 6 | time to occlusion ([1]; 0.1 μM Compound A): 52.66 | % Did not occlude (inhibition of rat thrombosis) ([1]; 0.3 μM Compound A): 90% | Number of animals without occlusion ([1]; 0.3 μM Compound A): 9 | time to occlusion ([1]; 0.3 μM Compound A): 35.78 | % DNO (inhibition of rat thrombosis) ([1]; Compound A 0.03 μM iv infusion, aspirin 3 mg/kg iv bolus, or both): 30% | TTO (Time to occlusion) ([1]; average for animals that occluded, Compound A 0.03 μM, aspirin 3 mg/kg, or both): 27.07 ± 7.36 min | DNO (did not occlude) ([1]; number of 10 animals, Compound A 0.03 μM iv infusion, aspirin 3 mg/kg iv bolus, or both): 3 | inhibition of cytokine release (cytokine release): did not produce statistically significant inhibition of cytokine release | fold change of Interleukin 6 release (Interleukin 6; 50 nM Compound A): 1.01 | fold change of Interleukin 6 release (Interleukin 6; 200 nM Compound A): 0.96 | fold change of Interleukin 6 release (Interleukin 6; 500 nM Compound A): 0.87 | reduction in the levels of released interleukin 6 (Interleukin 6; [3]): 25% | further reduction of interleukin 6 (Interleukin 6; [4]): 16% | reduction in the levels of released interleukin 8 (Interleukin 8; [3]): 44% | further reduction of interleukin 8 (Interleukin 8; [4]): 18% | % Inhibition of thrombin generation (thrombin generation; ASA donors, 7.8125 nM Compound A, normalized to Non-ASA at 0 nM): 24.6% | % Inhibition of thrombin generation (thrombin generation; ASA donors, 15.625 nM Compound A, normalized to Non-ASA at 0 nM): 26.9% | % Inhibition of thrombin generation (thrombin generation; ASA donors, 31.25 nM Compound A, normalized to Non-ASA at 0 nM): 33.4% | % Inhibition of thrombin generation (thrombin generation; ASA donors, 62.5 nM Compound A, normalized to Non-ASA at 0 nM): 46.0% | % Inhibition of thrombin generation (thrombin generation; ASA donors, 125 nM Compound A, normalized to Non-ASA at 0 nM): 64.7% | % Inhibition of thrombin generation (thrombin generation; ASA donors, 250 nM Compound A, normalized to Non-ASA at 0 nM): 82.5% | % Inhibition of thrombin generation (thrombin generation; ASA donors, 500 nM Compound A, normalized to Non-ASA at 0 nM): 94.6% | % Inhibition of thrombin generation (thrombin generation; Non-ASA donors, 7.8125 nM Compound A): 3.2% | % Inhibition of thrombin generation (thrombin generation; Non-ASA donors, 15.625 nM Compound A): 5.1% | % Inhibition of thrombin generation (thrombin generation; Non-ASA donors, 31.25 nM Compound A): 12.2% | % Inhibition of thrombin generation (thrombin generation; Non-ASA donors, 62.5 nM Compound A): 25.2% | % Inhibition of thrombin generation (thrombin generation; Non-ASA donors, 125 nM Compound A): 55.1% | % Inhibition of thrombin generation (thrombin generation; Non-ASA donors, 250 nM Compound A): 81.1% | % Inhibition of thrombin generation (thrombin generation; Non-ASA donors, 500 nM Compound A): 96.0% | Clinical significant nonmajor bleeds % ([2]; Compound A 15 mg bid): 0% | Major Bleeds % ([2]; Compound A 15 mg bid): 0% | VTE % ([2]; Compound A 15 mg bid oral, n = 69): 20% | Clinical significant nonmajor bleeds % ([2]; Compound A 40 mg bid): 2.4% | Major Bleeds % ([2]; Compound A 40 mg bid): 0% | VTE % ([2]; Compound A 40 mg bid oral, n = 65): 15%
